Measured values as given in patent US20230381257A1, “HERBAL COMPOSITION JCM-16021 AS TREATMENT FOR INFLAMMATORY BOWEL DISEASE” (Hong Kong Baptist University, priority 2022, published 2023).

Key:
Type in all cases: in vivo, Rag 1−/− immunodeficient mice
Tnf-α and Mcp-1 mRNA = assay: qRT-PCR of colon tissue, T cell transfer colitis model
Experimental: Total RNA was extracted from tissues using Trizol reagent (Invitrogen) and reverse transcribed into cDNA using cDNA synthesis kit (Bio-Rad Laboratories). The cDNA was diluted 50-fold as a template for qRT-PCR. According to the kit instructions mRNA expression levels were detected using SYBR Green fluorescent probe. Primers used for qRT-PCR are: Tnf-α, forward primer 5′-[…]-3′ (SEQ ID NO:1), reverse primer 5′-[…]-3′ (SEQ ID NO:2); Mcp-1, forward primer 5′-[…]-3′ (SEQ ID NO:3), reverse primer 5′-[…]-3′ (SEQ ID NO:4); 18S rRNA, forward primer 5′-[…]-3′ (SEQ ID NO:5), reverse primer 5′-[…]-3′ (SEQ ID NO:6).
(§1) CD4^+ naive T cells were isolated and purified from the spleens of wild-type C57BL/6J mice using a naive CD4+ T cell isolation kit (#130-104-453, Miltenyi Biotech) according to the manufacturer's recommendations. The isolated CD4^+ naive T cells were incubated with antibodies against CD4 (#100406, BioLegend), CD25 (#17025182, eBiosciences) and CD45RB (#103314, BioLegend) and purity was analyzed by BD Fortessa flow cytometer (BD Biosciences). 4×10^5 CD4^+ naive T cells were intraperitoneally injected into Rag 1^−/− immunodeficient mice. Clinical symptoms of colitis including fecal occult blood, loose stool/diarrhea, rough/hunched posture and weight loss were monitored every three days thereafter. […]

[1] = system: ulcerative colitis induced by CD4+ naive T cell transfer; assay: CD4+ naive T cell transfer-induced ulcerative colitis model: fecal occult blood, pathological index, H&E/PAS histology
Excerpt: Day one of the experiment is defined as i) adoptive transfer of […] CD4^+ T cells to Rag 1^−/− mice or ii) first day of DSS administration. JCM-16021 was orally administered to mice (weighing approximately 22-24 grams) at doses of 1.0 and 2.0 g/kg. Body weight and fecal bleeding were monitored every three days. Mice were euthanized and serum, colon tissue, spleen, mesenteric lymph nodes and feces were collected for further analysis.
Fecal occult blood test kit was purchased from Nanjing Jiancheng Bioengineering Institute and performed according to the kit instructions.
Histological staining, PAS staining, immunohistochemical staining and immunofluorescent staining: • At the end of the experiment, mouse colon tissue was preserved using 4% paraformaldehyde fixed at 4° C. for 2 hours and embedded in paraffin. After dewaxing, mouse colon tissue sections were washed with PBS and blocked with 3% H2O2. Tissue sections were then blocked with blocking solution (10% horse serum, 0.1% bovine serum albumin, 0.2% gelatin) at room temperature for 1 hour to block non-specific sites. […]
Histological grading of colitis were analyzed based on inflammatory features, extent, regeneration, crypt damage and percentage in hematoxylin-eosin and periodic acid-Schiff stained colon sections. Colitis scores will be determined by two independent researchers blinded to animal treatment.
as §1, with “4×10^5 CD4^+ naive T cells were intraperitoneally injected into Rag 1^−/− immunodeficient mice.” left out

CD4+Foxp3+ Treg cells = assay: Flow cytometry of regulatory T cells in colon lamina propria lymphocytes, T cell transfer colitis model; details: JCM-16021 2.0 g/kg; IFLX 5 mg/kg; FACS, FIG. 4B
Experimental: After dissecting and isolating the colon from mice, it was washed four times in ice-cold PBS (137 mM NaCl, 2.7 mM KCl, 10 mM Na2HPO4, 1.8 mM KH2PO4, pH 7.4) and then cut into approximately 1 cm long fragments. Intestinal epithelial cells and lamina propria were separated by vigorous shaking in HBSS buffer containing 2 mM EDTA at 37° C. for 30 minutes. Intestinal epithelial cells were collected by centrifugation at 1,000 rpm at 4° C. The remaining colon tissue was incubated with digestion buffer (DMEM medium, 5% fetal calf serum, 1 mg/mL collagenase IV and DNAse I) at 37° C. with shaking for 40 minutes to separate colon lamina propria lymphocytes. The digested colon tissue cell suspension was filtered through a 70 micron cell filter and centrifuged. […]
Colon lamina propria lymphocytes were diluted to 1×10^5 cells/mL and subjected to intracellular staining after fixation and permeabilization. Cells were stained with a primary antibody diluted 1:100 at 4° C. in the dark for 30 minutes and analyzed by flow cytometry using antibodies against CD3 (APC, BD Biosciences), CD4 (FITC, BD Biosciences), and Foxp3 (PE, BD Biosciences). Analysis was performed using a BD LSRFortessa™ flow cytometer (BD Biosciences) and data obtained was analyzed using FlowJo software. […]

infliximab [IFLX]
expression level of Tnf-α mRNA in colon tissue (Tnf-α and Mcp-1 mRNA; FIG. 2B): significantly reduced | expression level of Mcp-1 mRNA in colon tissue (Tnf-α and Mcp-1 mRNA; FIG. 2C): significantly reduced | fecal occult blood ([1]; JCM-16021 1.0 and 2.0 g/kg oral twice daily for three weeks, IFLX 5 mg/kg once weekly, FIG. 1C): did not exhibit similar activity | ulcerative colitis pathological index ([1]; JCM-16021 1.0 and 2.0 g/kg oral twice daily for three weeks, IFLX 5 mg/kg once weekly, FIG. 1D): did not exhibit similar activity | overall therapeutic efficacy (comparison of doses and with IFLX) ([1]; JCM-16021 2.0 g/kg vs 1.0 g/kg, infliximab 5 mg/kg under the same experimental conditions): less effective than JCM-16021 | ratio of CD4+Foxp3+ Treg cells in isolated LPMC (CD4+Foxp3+ Treg cells): similar
